# Literature values as cited in paper PMC8875809, “Comparative venomic profiles of three spiders of the genus Phoneutria” (The Journal of Venomous Animals and Toxins Including …, 2022).
# Entries after “also recorded” stand apart in the source; their conditions may differ.
# Columns and labels:
# [1] = system: nitric oxide (NO)/cyclic GMP pathway; details: ref [24],[35],[36]
# Source text: (§1) PnTx2-6 (MW 5288 Da) contains 48 amino acids, of which 10 are cysteine residues. […] Due to such effects on penile erection, PnTx2-6 has shown good perspectives for clinical application on erectile dysfunction treatment. PnTx2-6 modulates the nitric oxide (NO)/cyclic GMP pathwa ...
# sodium channels = details: ref [78]
# Source text: PnTx2-6 (MW 5288 Da) contains 48 amino acids, of which 10 are cysteine residues. […] Due to such effects on penile erection, PnTx2-6 has shown good perspectives for clinical application on erectile dysfunction treatment. […] Although we have not assayed Tx2-6 isoforms from P. eickstedtae (Pe-V) and P. pertyi (Pp- V), we believe that them has similar effects on sodium channels like PnTx2-6 isoform and similar results would be expected, because these toxins are homologous. The species P. eickstedtae and P. pertyi are rarer spiders. In addition, since Tx1 is the most abundant toxin, only this molecule was used for electrophysiology assays. We believe that our data, as they are, already bring the news to arouse ...
# penile erection = system: penile erection
# Source text: as §1, with “PhTx2 toxins inhibit sodium channel inactivation. These toxins are the main responsible for the strongest neurotoxic effects of venom. […] These toxins have been explored as models for the development of a potential drug for the treatment of erectile dysfunction. || PnTx2-6 (MW” for “PnTx2-6 (MW”
substance,measurement,setting,value
"PnTx2-6: contains 48 amino acids, of which 10 are cysteine residues; P. nigriventer toxin (P29425) (ATCAGQDQPCKETCDCCGERGECVCGGPCICRQGYFWIAWYKLANCKK; UniProt P29425 35-82, looked up)",NO release in corpus cavernosum tissue,[1],increased release of NO in the corpus cavernosum tissue
same,effect on sodium channel inactivation,sodium channels,modifies the kinetics of sodium channel inactivation; also recorded: decreases sodium channel inactivation
same,voltage dependence of activation / sodium influx,sodium channels,"shifting the voltage dependence of activation towards more hyperpolarized potentials, thus increasing sodium influx"
same,priapism,"penile erection; ref [21],[24]",found to induce priapism
same,penile erection in envenomation,penile erection; ref [29],responsible for the penile erection
